Reference: paper PMC11335710 (GeroScience, 2024)
Entries after “also recorded” stand apart in the source; their conditions may differ. Ends that are not written are not given here.

Legend:
[1] = test system: SH-SY5Y human neuroblastoma cells; assay: 6-OHDA-mediated cell loss in SH-SY5Y cells (TOPRO-3 cell density); format: cell-based; conditions: 6-OHDA 100 µM 2 h, GLP-1 or GIP 10 nM, DPP-4 inhibitor 1 µM, read at 24 h
Description: Five minutes later, the cells were treated with vehicle or freshly prepared 6-OHDA (100 µM) for 2 h. GIP, GLP-1, and DPP-4 inhibitor or vehicle were added to the media again after three washes. […] The cells were then washed in PBS for three times and, thereafter, were imaged using a Licor Odyssey IR scanner. Cell density in each well was analyzed by using Licor Odyssey In Cell Western analyses software v 3.0, as previously described [45].
In our study, TOPRO-3 was applied to cells after fixation with 4% PFA. The cells were washed in PBS for three times and, thereafter, were imaged using a Licor Odyssey IR scanner. Under these conditions, it is likely that any dead cells were washed away before quantifying fluorescence.

[2] = test system: rat primary ventral mesencephalic cultures; assay: 6-OHDA toxicity in rat primary ventral mesencephalic cultures (TH cell density); format: cell-based; conditions: rat primary VM cultures, 6-OHDA 100 µM 2 h; for Effect of co-administered DPP-4 inhibitor on protective response of GIP and GLP-1 (TH cell density): PF-00734,200 1 µM with GLP-1 or GIP 10 nM; for Effect on 6-OHDA-mediated reduction in TH cell density: GLP-1 or GIP 10 nM, fixed 22 h after washing
Excerpt: Primary cultures were generated from embryonic (E14-15) ventral mesencephalon (VM) brain tissue removed from fetuses of timed-pregnant Sprague–Dawley rats (Charles River Laboratories, Wilmington, MA), in line with published procedures with minor modifications. Briefly, the whole brain was removed aseptically, and a small piece of tissue containing the VM was separated. Blood vessels and meninges were detached, and remaining pooled VM tissues were gently trypsinized (0.25% (Invitrogen, Carlsbad, CA), 15 min at 37°C). Trypsin was removed with pre-warmed DMEM/F-12 (Invitrogen), and cells were dissociated by trituration and then counted and plated into 96-well (6.0 × 10^4/well) cell culture plates that were pre-coated with poly-D-lysine (Sigma-Aldrich). The culture plating medium was Dulbecco’s modified Eagle medium/F12 supplemented with 10% heat-inactivated fetal bovine serum, 1 mM L-glutamine, and 2% B27 (Invitrogen). VM cells were maintained at 37°C in a humidified atmosphere (5% CO2 and 95% air) and fed by exchanging 50% of media with feed media (Neurobasal medium, Invitrogen) with 0.5 mM L-glutamate and 2% B27 with antioxidants supplement on DIV (days in vitro) 3 and 5. On DIV7, VM cultures were fed with media containing B27 supplement minus antioxidants (Invitrogen). Thereafter, freshly prepared 6-OHDA (100 µM in 20 µM ascorbic acid saline solution) or saline (with 20 µM ascorbic acid) was added to the wells on DIV 10. Following 2-h incubation, cultures were washed with feed media plus ( −) AO B27 three times. DPP-4 inhibitor (PF-00734,200), incretins, or vehicle was added to the well at the last wash as a post-treatment strategy. Cells were returned to a 37°C incubator for 22 h and then fixed with 4% paraformaldehyde (PFA) for immunoreactivity evaluation.

6-OHDA lesioned rats = conditions: rats with unilateral medial forebrain bundle 6-OHDA lesion; cited from earlier work
[3] = Plasma sitagliptin pharmacokinetics in nonhuman primates (LC-MS, noncompartmental analysis)
Description: Animals included Macaca mulatta of 7 to 20 kg weight, mixed gender, 12 to 19 years of age (n = 5 to 7 per group). […] Commercially prepared monkey chow was distributed twice per day along with daily food enrichment, and water was available ad libitum. Monkeys were observed daily for food consumption and overall well-being.
(§1) Immediately thereafter, an oral glucose tolerance test was performed to stimulate incretin secretion. This is designated as time zero (i.e., 0) in Figs. 2, 4 and 5.
(§2) Further samples were collected without the inhibitor for DPP-4 analysis to permit quantification of DPP-4 inhibition. Incretin levels were measured with the following assays: Active GLP-1 ((ver 2 kit) Meso Scale Diagnostic), Active GIP (ELISA kit—IBL America), DPP-4 activity was evaluated by fluorometric assay using a DPPIV/CD26 assay kit for biological samples ((BML-AK498-0001) Enzo Life Sciences, Farmingdale, NY).
A noncompartmental approach to pharmacokinetic analysis was employed using Phoenix WinNonlin v8.3 (Certara Corp, Cary, NC). The maximum plasma concentration (Cmax) and the time of maximum plasma concentration (Tmax) were recorded as observed values. […] AUCINF (the AUC from time zero to infinity) was calculated by extrapolation by dividing Clast (the last measurable drug concentration) by the rate constant of the terminal phase, lZ (Kel). This constant was determined from the slope of the terminal phase of the concentration–time curve using uniformly weighted least squares as the estimation procedure and acceptance criteria of (i) adjusted r^2 > 0.8 and (ii) includes > 3 time points in the terminal phase.

GLP-1 and GIP = assay: CSF GLP-1 and GIP levels in NHPs (both incretins, summary in text); format: in vivo, Macaca mulatta; conditions: CSF at 3 and 5 h after day 6 sitagliptin, NHP
Description: as §1, §2

[4] = set-up: method as in Reference 33 within 44; conditions: Merck's data on file; ref Reference 33 within 44; cited from earlier work
[5] = cited from earlier work
p-glycoprotein = conditions: in relation to renal clearance; cited from earlier work
[6] = test system: organic anion transporter 3 (hOAT3); conditions: in relation to renal clearance; cited from earlier work
in vivo = conditions: both, Macaca mulatta
[7] = both, rhesus monkey, in vivo, po, 5 mg/kg
[8] = both, rhesus monkey, in vivo, po, 20 mg/kg
[9] = both, rhesus monkey, in vivo, po, 100 mg/kg

## O=C([C@@H]1C[C@H](N2CCN(c3ncccn3)CC2)CN1)N1CCC(F)(F)C1 [PF-00734,200, gosogliptin]
[1]; listed as DPP-4I
  Effect on 6-OHDA-mediated cell loss (TOPRO-3 fluorescence cell density): ameliorated
[1]; listed as DPP-4 inhibitor
  Effect on 6-OHDA-mediated cell loss (TOPRO-3 fluorescence cell density): partially mitigated
[2]
  Effect of co-administered DPP-4 inhibitor on protective response of GIP and GLP-1 (TH cell density): significantly potentiated
[2]; listed as DPP-4I
  Effect of co-administered DPP-4 inhibitor on protective response of GIP and GLP-1 (TH cell density): further reduced
6-OHDA lesioned rats
  Effect on dopaminergic neurons, dopamine levels and methamphetamine-mediated rotation: mitigated the loss of dopaminergic neurons and dopamine levels

## N[C@@H](CC(=O)N1CCn2c(nnc2C(F)(F)F)C1)Cc1cc(F)c(F)cc1F [sitagliptin]
[3]; 20 mg/kg oral once daily, day 6, NHP plasma
  Tmax: 2 h
[3]; both, Macaca mulatta, in vivo, po
  Tmax: 2 h
[3]; [7]
  AUC(0-inf): 8.81 µM·h
  AUC(0-t): 7.83 µM·h
  Cmax: 0.768 µM
  half-life: 504 min
  k el: 2.28e-05 s⁻¹
[3]; [8]
  AUC(0-inf): 50.9 µM·h
  AUC(0-t): 49.6 µM·h
  Cmax: 7.06 µM
  half-life: 300 min
  k el: 3.87e-05 s⁻¹
[3]; [9]
  AUC(0-inf): 214 µM·h
  AUC(0-t): 193 µM·h
  Cmax: 13.7 µM
  Tmax: 2 to 8 h
  half-life: 402 min
  k el: 2.85e-05 s⁻¹
[3]; both, rhesus, Macaca mulatta, in vivo, po, 5 mg/kg
  Cmax: 0.768 µM
GLP-1 and GIP
  Elevation of CSF levels of GLP-1 and GIP vs placebo: 2.0- to 3.4 fold
[4]
  Maximally well-tolerated sitagliptin dose in NHPs: 100 mg/kg
[5]
  log P: 1.5
p-glycoprotein
  Substrate for p-glycoprotein: substrate
[6]
  Substrate for organic anion transporter 3 (hOAT3): substrate
6-OHDA lesioned rats
  Effect on dopaminergic neurons, dopamine levels and methamphetamine-mediated rotation: mitigated the loss of dopaminergic neurons and dopamine levels
In vivo
  Kp at 3 h: 0.01
  Kp at 5 h: 0.01

## glucagon-like peptide-1 (HAEGTFTSDVSSYLEGQAAKEFIAWLVKGR; ends and bridges not checked; UniProt P01275 98-127, looked up) [GLP-1, endogenous incretin hormone added to cultures at 10 nM]
[1]
  Effect on 6-OHDA-mediated cell loss (TOPRO-3 fluorescence cell density): partially mitigated; also recorded: ameliorated
[2]
  Effect on 6-OHDA-mediated reduction in TH cell density: partially but significantly mitigated
[2]; listed as GLP‐1
  Effect on 6-OHDA-mediated reduction in TH cell density: significant amelioration

## glucose-dependent insulinotropic polypeptide [GIP]
[1]
  Effect on 6-OHDA-mediated cell loss (TOPRO-3 fluorescence cell density): significantly antagonized; also recorded: ameliorated; also recorded: fully protected against cell loss
[2]
  Effect on 6-OHDA-mediated reduction in TH cell density: partially but significantly mitigated; also recorded: significant amelioration
